In patent US8198446B2, “Crystalline micropowder particles” (Toray Industries, Inc., priority 2007, dated 2012):

What was measured:
[1] = Check of crystalline state and measurement of degree of crystallinity by powder X-ray diffraction; type: physicochemical; conditions: powder X-ray diffraction, Xc=(Sc/(Sc+Sa))×100
Protocol: The degree of crystallinity of the crystalline finely-ground particles according to the present invention is calculated from the integrated intensity ratio of crystalline peaks and amorphous halo which are extracted from an X-ray diffraction pattern obtained by powder X-ray diffraction measurement.
The powder X-ray diffraction measurement may be carried out by using, for example, a powder X-ray diffractometer (2200/RINT Ultima+PC) manufactured by Rigaku as described in Evaluation 2 of the present invention. In preparation of a measurement sample, 100 mg of a sample material is filled in a glass sample plate (0.2 mm depth) in non-destructive condition, and the surface of the sample material is leveled out using a glass plate to obtain a measurement sample. An example of the measurement condition is as follows, which was used in the present invention.
The degree of crystallinity may be calculated by a known analysis method using diffraction patterns of a sample material and sample plate alone (without a sample material) and a difference pattern thereof. For example, using a powder X-ray diffraction pattern analysis software JADE5.0 produced by MDI, which is a commercially available analysis software, a degree of crystallinity may be calculated as follows.
• (1) A difference pattern of the diffraction patterns of a sample material and sample plate alone is smoothed (Savitzky-Goray filter: 19 points). • (2) For a display area of the difference pattern, the x-axis: diffraction angle (2θ) is set between 2 deg and 90 deg, and the y-axis: diffraction intensity (Counts) is set between 0 and 500. • (3) Points are set at diffraction angles of […], 65 and 90 deg, respectively, and a straight line parallel to the x-axis is drawn such that the line is contact with the difference diffraction pattern at a range of 65 deg to 90 deg. The area below the line is determined as a background. • (4) The background is subtracted. • (5) An integrated intensity at a range of 4 deg to 60 deg is calculated (which corresponds to a sum of the integrated intensity of crystalline peaks and an amorphous halo: Sc+Sa) • (6) Points are set at diffraction angles of 2, 7, 18, 26, 30, 35, 59, 65 and 90 deg, respectively. At 2, 65 and 90 deg, the diffraction intensity is set as 0, and at 7, 18, 26, 30, 35 and 59 deg, an approximation by a cubic spline is made such that the approximation formula is in contact with the difference pattern obtained after the subtraction of the background, thereby estimating an amorphous halo. • (7) The amorphous halo is subtracted. • (8) The integrated intensity at a range of 4 deg to 60 deg is calculated (which corresponds to the integrated intensity of the crystalline peaks: Sc). • (9) A degree of crystallinity is calculated according to the following equation. Xc=(Sc/(Sc+Sa))×100 Equation • Xc: Degree of crystallinity (%) • Sc: Integrated intensity of the crystalline peaks • Sa: Integrated intensity of the amorphous halo
For check of the crystalline state and measurement of the degree of crystallinity, powder X-ray diffraction measurement was carried out using a powder X-ray diffraction analyzer (2200/RINT Ultima+PC) manufactured by Rigaku.

[2] = Measurement of particle diameter distribution (laser diffraction, dry measurement, Mastersizer 2000); type: physicochemical; conditions: for Particle Diameter Distribution D50 / Particle Diameter Distribution D90: dry measurement, volume basis
Protocol: In the present invention, D50 and D90 are indices for defining particle diameter distribution. Particle diameter distribution is usually called particle size distribution. Particles are divided into groups along with their size with appropriate intervals, and weight (volume) or particle number of the particles belonging to each group is measured to obtain the particle number (frequency) of each group. Taking the particle number (frequency) along the ordinate and taking the particle diameter along the abscissa, a particle diameter distribution is shown as a histogram, frequency curve, cumulative curve or the like. In the present invention, frequency was calculated based on volume. In the particle diameter distribution obtained in such a manner, D50 means the particle diameter at the point where the volume which is cumulatively measured from smaller particles reaches 50%, that is, the point where the cumulative frequency of the volume distribution reaches 50%. D90 means the particle diameter at the point where the volume which is cumulatively measured from smaller particles reaches 90%, that is, the point where the cumulative frequency of the volume distribution reaches 90%. Cumulative frequency (%) of particles which have a smaller diameter than a specified particle diameter can also be calculated from such a distribution chart.
Measurement of the particle diameter distribution of the crystalline finely-ground particles according to the present invention may be carried out with a commercially available apparatus using laser diffraction/scattering based on Mie Theory. For example, the measurement is carried out using a commercially available apparatus such as Malvern (registered trademark) Mastersizer Laser Diffraction Analyzer (Malvern Instruments Ltd). This analyzer irradiates He—Ne laser beam and blue light-emitting diode on particles to obtain a light scattering pattern which occurs on a detector by the irradiation, and then analyzes the light scattering pattern according to Mie Theory to determine the particle diameter distribution. […] An example of the measurement condition is as follows, which was used in Evaluation 1 of the present invention.
• Apparatus: Laser diffraction-based particle size distribution analyzer Mastersizer 2000 (Malvern) • Dry measurement unit: Scircco 2000 • Refractive Index of Samples: Real part; 1.810, Imaginary part; 0 • Time for Sample Measurement: 1 second • Time for Background Measurement: 5 seconds • Pressure: 2.0 bar • Feed Rate: 40% • Analysis Model: Single narrow mode • Calculation Sensitivity Enhanced • Particle Shape Irregular • Analysis Range: 0.020 to 2000 μm • Basis of Size Distribution Measurement: Volume
The particle diameter distribution of the subject compound was measured by dry measurement using a particle size distribution analyzer (Mastersizer 2000, manufactured by Malvern). D50 and D90 were calculated as an index of the particle diameter distribution.

[3] = Plasma concentration of drugs when administered to dogs; type: in vivo; conditions: oral 10 mg/kg, 3 male beagle dogs
Protocol: The pharmaceutical active substances with a different particle diameter distribution (Example 2 and Comparative Example 2) were orally administered (10 mg/kg) to 3 male beagle dogs, and blood samples were collected at each time points to measure the drug concentration in plasma.

[4] = Storage stability (2): total amount of related substances by HPLC, 60° C./75% RH opened; type: physicochemical
Protocol: For comparison of storage stability, the ground pharmaceutical active substance of Comparative Example 4 (grinding for 3 min), Comparative Example 5 (grinding for 6 min) and Comparative Example 6 (grinding for 7 min), all of which were ground with Table Ball Mill (model V-2M: manufactured by Irie Shokai), were left under the storage condition of 60° C./75% RH opened, and the total amount of related substances was analyzed by HPLC 0.5 and 2 months after the start of the storage (Table 7).

Row | Compound | Degree of Crystallinity [1] [%] | Cumulative Frequency of Volume Distribution Which Is Occupied by Particles with Volume-Based Particle Diameter 15 (μm) or Less [2] [%] | Particle Diameter Distribution D50 [2] [μm] | Particle Diameter Distribution D90 [2] [μm] | Drug Plasma Concentration AUC 0-24 h, Average (Standard Deviation) [3] | Drug Plasma Concentration C max, Average (Standard Deviation) [3] | Total Amount of Related Substances ([4]; 60° C./75% RH opened, 0.5-Month Later) [%] | Total Amount of Related Substances ([4]; 60° C./75% RH opened, 2-Month Later) [%] | Total Amount of Related Substances ([4]; At Start of Storage) [%]
1 | O=C1c2ccccc2C(=O)N1[C@@H]1CC[C@@]2(O)[C@H]3Cc4ccc(O)c5c4[C@@]2(CCN3CC2CC2)[C@H]1O5 [Comparative Example 2, N-(17-Cyclopropylmethyl-4,5α-epoxy-3,14-dihydroxy-morphinan-6β-yl)-phthalimide] | 93 | 9.4 | 64.0 | 173 | 44.5 (25.4) ng · hr/mL | 4.8 (1.8) ng/mL | – | – | –
2 | O=C1c2ccccc2C(=O)N1[C@@H]1CC[C@@]2(O)[C@H]3Cc4ccc(O)c5c4[C@@]2(CCN3CC2CC2)[C@H]1O5 [Comparative Example 5, N-(17-cyclopropylmethyl-4,5α-epoxy-3,14-dihydroxy-morphinan-6β-yl)-phthalimide] | 71 | – | 19.2 | 246 | – | – | 0.61 | 1.07 | 0.24
3 | O=C1c2ccccc2C(=O)N1[C@@H]1CC[C@@]2(O)[C@H]3Cc4ccc(O)c5c4[C@@]2(CCN3CC2CC2)[C@H]1O5 [Example 2, N-(17-cyclopropylmethyl-4,5α-epoxy-3,14-dihydroxy-morphinan-6β-yl)-phthalimide] | 89 | 96.3 | 6.23 | 12.4 | 180.3 (40.9) ng · hr/mL | 18.4 (7.2) ng/mL | – | – | –
